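Tested at 5 concentrations; 48 h exposure; 96-well plates; endpoints linearly interpolated, else capped at highest concentration. TGI denotes the concentration required for complete inhibition of growth.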
Legend:
Experiment in all cases: DTP human tumour cell line panel, 48 h
786-0 renal = system: 786-0 renal
A549 NSCLC = system: A549 NSCLC
ACHN renal = system: ACHN renal
BT-549 breast = system: BT-549 breast
CAKI-1 renal = system: CAKI-1 renal
CCRF-CEM leukemia = system: CCRF-CEM leukemia
COLO 205 colon = system: COLO 205 colon
DU-145 prostate = system: DU-145 prostate
EKVX NSCLC = system: EKVX NSCLC
HCC-2998 colon = system: HCC-2998 colon
HCT-116 colon = system: HCT-116 colon
HOP-62 NSCLC = system: HOP-62 NSCLC
HOP-92 NSCLC = system: HOP-92 NSCLC
HS 578T breast = system: HS 578T breast
HT29 colon = system: HT29 colon
IGROV1 ovarian = system: IGROV1 ovarian
K-562 leukemia = system: K-562 leukemia
KM12 colon = system: KM12 colon
LOX IMVI melanoma = system: LOX IMVI melanoma
MCF7 breast = system: MCF7 breast
MDA-MB-231 breast = system: MDA-MB-231 breast
MDA-MB-435 = system: MDA-MB-435
MDA-N = system: MDA-N
MOLT-4 leukemia = system: MOLT-4 leukemia
NCI-H226 lung = system: NCI-H226 lung
NCI-H23 lung = system: NCI-H23 lung
NCI-H460 lung = system: NCI-H460 lung
NCI-H522 lung = system: NCI-H522 lung
NCI/ADR-RES ovarian = system: NCI/ADR-RES ovarian
OVCAR-3 ovarian = system: OVCAR-3 ovarian
OVCAR-4 ovarian = system: OVCAR-4 ovarian
OVCAR-5 ovarian = system: OVCAR-5 ovarian
OVCAR-8 ovarian = system: OVCAR-8 ovarian
PC-3 prostate = system: PC-3 prostate
RPMI-8226 leukemia = system: RPMI-8226 leukemia
RXF 393 renal = system: RXF 393 renal
SF-268 CNS = system: SF-268 CNS
SF-295 CNS = system: SF-295 CNS
SF-539 CNS = system: SF-539 CNS
SK-MEL-2 melanoma = system: SK-MEL-2 melanoma
SK-MEL-28 melanoma = system: SK-MEL-28 melanoma
SK-MEL-5 melanoma = system: SK-MEL-5 melanoma
SK-OV-3 ovarian = system: SK-OV-3 ovarian
SN12C renal = system: SN12C renal
SNB-19 CNS = system: SNB-19 CNS
SNB-75 CNS = system: SNB-75 CNS
SR leukemia = system: SR leukemia
SW-620 colon = system: SW-620 colon
T-47D breast = system: T-47D breast
TK-10 renal = system: TK-10 renal
U251 CNS = system: U251 CNS
UACC-257 melanoma = system: UACC-257 melanoma
UACC-62 melanoma = system: UACC-62 melanoma
UO-31 renal = system: UO-31 renal
A498 renal = system: A498 renal
HCT-15 colon = system: HCT-15 colon
HL-60(TB) leukemia = system: HL-60(TB) leukemia
M14 melanoma = system: M14 melanoma
MALME-3M melanoma = system: MALME-3M melanoma

With `CCOC(=O)/C=C(/C(=O)OCC)n1ccc(=O)n(Cc2cnnn2CCCCOC(C)=O)c1=O` the TGI (786-0 renal) was over 100 µM, the TGI (A549 NSCLC) was over 100 µM and the TGI (ACHN renal) was over 100 µM. The TGI (BT-549 breast) was over 100 µM, the TGI (CAKI-1 renal) was 76.3 µM and the TGI (CCRF-CEM leukemia) was 30.9 µM. It also gave a TGI (COLO 205 colon) of 46 µM, a TGI (DU-145 prostate) of over 100 µM and a TGI (EKVX NSCLC) of over 100 µM. For the same molecule, the TGI (HCC-2998 colon) was over 100 µM, the TGI (HCT-116 colon) was over 100 µM and the TGI (HOP-62 NSCLC) was over 100 µM. For the same molecule, the TGI (HOP-92 NSCLC) was 45.7 µM, the TGI (HS 578T breast) was over 100 µM and the TGI (HT29 colon) was over 100 µM. The TGI (IGROV1 ovarian) was over 100 µM, the TGI (K-562 leukemia) was over 100 µM and the TGI (KM12 colon) was over 100 µM. The TGI (LOX IMVI melanoma) was over 100 µM, the TGI (MCF7 breast) was over 100 µM and the TGI (MDA-MB-231 breast) was over 100 µM. For the same molecule, the TGI (MDA-MB-435) was over 100 µM, the TGI (MDA-N) was over 100 µM and the TGI (MOLT-4 leukemia) was over 100 µM. The TGI (NCI-H226 lung) was over 100 µM, the TGI (NCI-H23 lung) was over 100 µM and the TGI (NCI-H460 lung) was over 100 µM. It also gave a TGI (NCI-H522 lung) of 42.6 µM, a TGI (NCI/ADR-RES ovarian) of over 100 µM and a TGI (OVCAR-3 ovarian) of over 100 µM. It also gave a TGI (OVCAR-4 ovarian) of over 100 µM, a TGI (OVCAR-5 ovarian) of over 100 µM and a TGI (OVCAR-8 ovarian) of over 100 µM. It also gave a TGI (PC-3 prostate) of over 100 µM, a TGI (RPMI-8226 leukemia) of over 100 µM and a TGI (RXF 393 renal) of over 100 µM. For the same molecule, the TGI (SF-268 CNS) was over 100 µM, the TGI (SF-295 CNS) was over 100 µM and the TGI (SF-539 CNS) was over 100 µM. It also gave a TGI (SK-MEL-2 melanoma) of over 100 µM, a TGI (SK-MEL-28 melanoma) of over 100 µM and a TGI (SK-MEL-5 melanoma) of over 100 µM. The TGI (SK-OV-3 ovarian) was over 100 µM, the TGI (SN12C renal) was over 100 µM and the TGI (SNB-19 CNS) was over 100 µM. It also gave a TGI (SNB-75 CNS) of over 100 µM, a TGI (SR leukemia) of over 100 µM and a TGI (SW-620 colon) of 43.2 µM. It also gave a TGI (T-47D breast) of over 100 µM, a TGI (TK-10 renal) of over 100 µM and a TGI (U251 CNS) of over 100 µM. For the same molecule, the TGI (UACC-257 melanoma) was over 100 µM, the TGI (UACC-62 melanoma) was over 100 µM and the TGI (UO-31 renal) was over 100 µM.

Work on `NCCNC(=O)CN(CC(=O)O)C1CCCCC1N(CC(=O)O)CC(=O)O` (stereo unspecified) yielded a TGI (786-0 renal) of over 100 µM, a TGI (A498 renal) of over 100 µM and a TGI (A549 NSCLC) of over 100 µM. For the same molecule, the TGI (ACHN renal) was over 100 µM, the TGI (BT-549 breast) was over 100 µM and the TGI (CAKI-1 renal) was over 100 µM. The TGI (CCRF-CEM leukemia) was over 100 µM, the TGI (COLO 205 colon) was over 100 µM and the TGI (DU-145 prostate) was over 100 µM. It also gave a TGI (EKVX NSCLC) of over 100 µM, a TGI (HCC-2998 colon) of over 100 µM and a TGI (HCT-116 colon) of over 100 µM. It also gave a TGI (HCT-15 colon) of over 100 µM, a TGI (HL-60(TB) leukemia) of over 100 µM and a TGI (HOP-62 NSCLC) of over 100 µM. The TGI (HOP-92 NSCLC) was over 100 µM, the TGI (HS 578T breast) was over 100 µM and the TGI (HT29 colon) was over 100 µM. The TGI (IGROV1 ovarian) was over 100 µM, the TGI (K-562 leukemia) was over 100 µM and the TGI (KM12 colon) was over 100 µM. The TGI (LOX IMVI melanoma) was over 100 µM, the TGI (M14 melanoma) was over 100 µM and the TGI (MALME-3M melanoma) was over 100 µM. It also gave a TGI (MCF7 breast) of over 100 µM, a TGI (MDA-MB-231 breast) of over 100 µM and a TGI (MDA-MB-435) of over 100 µM. For the same molecule, the TGI (MDA-N) was over 100 µM, the TGI (MOLT-4 leukemia) was over 100 µM and the TGI (NCI-H226 lung) was over 100 µM. For the same molecule, the TGI (NCI-H23 lung) was over 100 µM, the TGI (NCI-H460 lung) was over 100 µM and the TGI (NCI-H522 lung) was over 100 µM. The TGI (NCI/ADR-RES ovarian) was over 100 µM, the TGI (OVCAR-3 ovarian) was over 100 µM and the TGI (OVCAR-4 ovarian) was over 100 µM. It also gave a TGI (OVCAR-5 ovarian) of over 100 µM, a TGI (OVCAR-8 ovarian) of over 100 µM and a TGI (PC-3 prostate) of over 100 µM. For the same molecule, the TGI (SF-268 CNS) was over 100 µM, the TGI (SF-295 CNS) was over 100 µM and the TGI (SF-539 CNS) was over 100 µM. The TGI (SK-MEL-2 melanoma) was over 100 µM, the TGI (SK-MEL-28 melanoma) was over 100 µM and the TGI (SK-MEL-5 melanoma) was over 100 µM. The TGI (SK-OV-3 ovarian) was over 100 µM, the TGI (SN12C renal) was over 100 µM and the TGI (SNB-19 CNS) was over 100 µM. For the same molecule, the TGI (SNB-75 CNS) was 94.9 µM, the TGI (SR leukemia) was over 100 µM and the TGI (SW-620 colon) was over 100 µM. The TGI (T-47D breast) was over 100 µM, the TGI (TK-10 renal) was over 100 µM and the TGI (U251 CNS) was over 100 µM. For the same molecule, the TGI (UACC-257 melanoma) was over 100 µM, the TGI (UACC-62 melanoma) was over 100 µM and the TGI (UO-31 renal) was over 100 µM.

Reference: PubChem BioAssay (NCI)
